From PMC6792352, “Limited Chemical Structural Diversity Found to Modulate Thyroid Hormone Receptor in the Tox21 Chemical Library” (Environmental Health Perspectives, 2019)
Read-outs that look alike come from different tables or passages of the source.

What was measured:
[1] = tested on: thyroid hormone receptor (endogenous TRα and TRβ); assay: GH3-TRE-Ag primary qHTS, luciferase reporter, agonist mode (TOX21_TR_LUC_GH3_Agonist, aeid 803); format: cell-based, rat; conditions: for GH3-TRE-Ag AC50 hitc: hit call from tcpl; for AC50: read-out: GH3-TRE-Ag AC50
[2] = tested on: thyroid hormone receptor (TR); assay: Classification of TR actives across characterization assays (TR-Ag / RXR-Ag; TR model binary); conditions: for Categorization Code: TR agonist characterization; for Classification: TR-Ag = TR agonist, RXR-Ag = RXR agonist
In short: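 Pharmaceuticals excluded; actives called from GH3-TRE qHTS (agonist, antagonist, viability) on 8,305 chemicals. Confirmation of 84 selected chemicals used GH3-TRE-Ag, mammalian one-hybrid TRβ and RXRα UAS-bla HEK 293T specificity screens, parental HEK293T viability, and two TR:coactivator recruitment assays.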

GH3-TRE-Luc cell line [3] = assay: GH3-TRE-Via cell viability, CellTiter-Fluor (TOX21_TR_LUC_GH3_Antagonist_viability, aeid 805); conditions: hit call from tcpl
[4] = as above; conditions: rat
[5] = molecular target: T1, TRα ligand-binding domain (Homo sapiens, UniProt P10827); assay: TRa-coa LanthaScreen TR-FRET coactivator (SRC-2 peptide) recruitment, agonist (TOX21_TRA_COA_Agonist_Followup_ratio, aeid 2230); format: biochemical; conditions: for TRa-coa hitc: hit call from tcpl, agonist; for Emax: read-out: EMax (% of Control) tra-coa-agonist-followup-1; for AC50: cell-free coactivator recruitment, read-out: TRa-coa-Ag AC50
T1 construct: the receptor LBDs expressed as glutathione S-transferase (GST) fusion proteins; purchased
T1 sequence (P10827 163-410 isoform P10827-2 limits assumed, other chains not shown): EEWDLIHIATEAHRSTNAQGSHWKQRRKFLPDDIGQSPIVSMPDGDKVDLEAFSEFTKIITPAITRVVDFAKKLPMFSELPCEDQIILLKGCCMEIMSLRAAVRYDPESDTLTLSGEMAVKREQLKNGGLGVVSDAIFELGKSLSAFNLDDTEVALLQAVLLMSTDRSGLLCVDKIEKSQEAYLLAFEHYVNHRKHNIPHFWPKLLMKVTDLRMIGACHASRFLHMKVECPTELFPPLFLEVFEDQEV

[6] = Global cytotoxicity: eighteen Tox21 cell viability assays; format: cell-based; conditions: read-out: Global cytotoxicity AC50 median
[7] = tested on: Tox21 cell viability assays (different cell types); assay: as above; format: cell-based
[8] = tested on: thyroid hormone receptor (endogenous TRα and TRβ); assay: GH3-TRE-Ag-Followup confirmation (TOX21_TR_LUC_GH3_Agonist_Followup, aeid 2226); format: cell-based, rat; conditions: for GH3-TRE-Ag-Followup hitc: hit call from tcpl; for AC50: confirmation, agonist mode, read-out: GH3-TRE-Ag-Followup AC50
human RXRα = molecular target: T2, human RXRα (Homo sapiens, UniProt P19793); assay: RXRa-bla-Ag mammalian one-hybrid beta-lactamase assay (TOX21_TR_RXR_BLA_Agonist_Followup_ratio, aeid 2253); format: cell-based; conditions: for AC50: HEK 293T one-hybrid, agonist mode, inactive set to 1,000, read-out: RXRa-bla-Ag AC50; for tr-followup-rxr-bla-agonist-1 hitc: hit call from tcpl; for Emax: read-out: EMax (% of Control) tr-followup-rxr-bla-agonist-1
T2 construct: host or cells: GeneBLAzer UAS-bla HEK 293T
T2 sequence (P19793 227-458 limits assumed): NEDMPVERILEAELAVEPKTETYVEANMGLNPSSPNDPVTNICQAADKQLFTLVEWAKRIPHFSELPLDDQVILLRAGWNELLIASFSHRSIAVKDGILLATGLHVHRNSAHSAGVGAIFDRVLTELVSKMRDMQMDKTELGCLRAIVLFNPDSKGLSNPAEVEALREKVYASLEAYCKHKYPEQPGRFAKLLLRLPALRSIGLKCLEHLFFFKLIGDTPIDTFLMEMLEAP

[9] = molecular target: T3, human TRβ ligand-binding domain (Homo sapiens, UniProt P10828); assay: TRb-bla agonist mammalian one-hybrid beta-lactamase assay (TOX21_TRB_BLA_Agonist_Followup_ratio, aeid 2236); format: cell-based; set-up: host or cells: GeneBLAzer UAS-bla HEK 293T; conditions: for AC50: HEK 293T one-hybrid, agonist mode, read-out: TRb-bla-Ag AC50; for TRb-bla hitc: hit call from tcpl, agonist; for Emax: read-out: EMax (% of Control) trb-bla-agonist-followup-1
T3 sequence (P10828 217-461 limits assumed): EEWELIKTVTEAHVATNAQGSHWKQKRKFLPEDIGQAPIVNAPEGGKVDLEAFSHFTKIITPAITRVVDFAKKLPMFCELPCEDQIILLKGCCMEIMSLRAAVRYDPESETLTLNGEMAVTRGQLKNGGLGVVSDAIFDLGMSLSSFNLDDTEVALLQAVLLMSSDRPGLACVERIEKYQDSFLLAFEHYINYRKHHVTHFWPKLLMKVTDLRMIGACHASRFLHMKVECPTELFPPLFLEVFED

GH3-TRE-Luc cell line [10] = conditions: rat, 24 h
[11] = molecular target: T3, human TRβ ligand-binding domain; assay: TRb-coa LanthaScreen TR-FRET coactivator (SRC-2 peptide) recruitment, agonist (TOX21_TRB_COA_Agonist_Followup_ratio, aeid 2244); format: biochemical; set-up: host or cells: GeneBLAzer UAS-bla HEK 293T; conditions: for AC50: cell-free coactivator recruitment, read-out: TRb-coa-Ag AC50; for TRb-coa hitc: hit call from tcpl, agonist; for Emax: read-out: EMax (% of Control) trb-coa-agonist-followup-1
[12] = tested on: thyroid hormone receptor (endogenous TRα and TRβ); assay: GH3-TRE-Antag primary qHTS, luciferase reporter, antagonist mode with 1 nM T3 (TOX21_TR_LUC_GH3_Antagonist, aeid 804); format: cell-based, rat; conditions: antagonist mode, 1 nM T3; read-out: GH3-TRE-Antag AC50
[13] = median over 18 Tox21 cell viability assays (Judson et al. 2016, invitrodb_v2)
[14] = # active of 18 total Tox21 viability assays
[15] = median over Tox21 viability assays

| SMILES | EMax (% of Control) gh3-tre-agonist [1] | GH3-TRE-Ag AC50 hitc [1] | Categorization Code [2] | Classification [2] | TR_LUC_GH3_Antagonist_viability hitc (GH3-TRE-Luc cell line [3]) | AC50 at 24 h [4] | TRa-coa hitc [5] | Emax [5] | AC50 [6, 13] | GLOBAL CYTOTOXICITY cytotox.number_Active [7, 14] | GLOBAL CYTOTOXICITY cytotox.median [7, 15] | EMax (% of Control) gh3-tre-agonist-followup-1_agonist [8] | GH3-TRE-Ag-Followup hitc [8] | tr-followup-rxr-bla-agonist-1 hitc (human RXRα) | Emax (human RXRα) | AC50 [9] | TRb-bla hitc [9] | Emax [9] | AC50 [5] | AC50 [8] | further results |
| --- | --- | --- | --- | --- | --- | --- | --- | --- | --- | --- | --- | --- | --- | --- | --- | --- | --- | --- | --- | --- | --- |
| N[C@@H](Cc1cc(I)c(Oc2cc(I)c(O)c(I)c2)c(I)c1)C(=O)O [Levothyroxine, reference compound] | 117.2 % of Control | 1 | TR-Ag | TR-Ag | 0 | > 92 µM | 1 | 171% | > 92 µM | 0 | >92 | 100.3 % of Control | 1 | 0 | 21.2% | – | – | – | – | – | AC50 ([1]; primary qHTS, agonist mode, 24 h, top concentration 92 μM): 0.0061 µM; AC50 (human RXRα): 1.36 µM |
| CC1=C(/C=C/C(C)=C/C=C/C(C)=C\C(=O)O)C(C)(C)CCC1 [13-cis Retinoic acid, reference compound] | 29.3 % of Control | 1 | RXR-Ag | RXR-Ag | – | 81.3 µM | 0 | -0.319% | 46.3 µM | – | – | 46.3 % of Control | 1 | – | – | > 92 µM | 0 | 6.8% | > 92 µM | 0.0348 µM | activity in TRβ-bla as agonist [9]: not active; activity in GH3-TRE agonist assay [1]: partial agonist; EMax in GH3-TRE-Ag assay ([1]; percent of positive control T3): 24 % of control; GLOBAL CYTOTOXICITY cytotox.median [7]: 46.3; GLOBAL CYTOTOXICITY cytotox.number_Active [7]: 5; TR_LUC_GH3_Antagonist_viability hitc (GH3-TRE-Luc cell line [10]): 1; activity in TRb-coa biochemical assay [11]: not active; AC50 [11]: > 92 µM; TRb-coa hitc [11]: 0; Emax [11]: -0.0945% |
| O=C(O)Cc1cc(I)c(Oc2cc(I)c(O)c(I)c2)c(I)c1 [Tetrac, 3,3ʹ,5,5ʹ-tetraiodothyroacetic acid] | 113.5 % of Control | 1 | TR-Ag | TR-Ag | 1 | 51.3 µM | 1 | 153% | 35.7 µM | 5 | 35.7 | 123.6 % of Control | 1 | 1 | 61.6% | 0.0209 µM | 1 | 204% | 0.248 µM | 0.006 µM | TR_LUC_GH3_Agonist_EMAX (% Control) ([1]; Table S5): 105.7 % Control; AC50 [11]: 0.227 µM; TRb-coa hitc [11]: 1; Emax [11]: 122% |
| C[C@]12CC[C@H]3C(=CCc4cc(O)ccc43)[C@@H]1CCC2=O [Equilin, reference compound] | 90.8 % of Control | 1 | RXR-Ag | RXR-Ag | 1 | 85.1 µM | 0 | 1.7% | > 92 µM | 0 | >92 | 6.3 % of Control | 0 | 1 | 61.3% | > 92 µM | 0 | 13.5% | > 92 µM | > 92 µM | AC50 [11]: > 92 µM; TRb-coa hitc [11]: 0; Emax [11]: -0.4%; AC50 (human RXRα): 0.986 µM |
| Cc1ccc2c(Cl)cc(Cl)c(O)c2n1 [5,7-Dichloro-8-hydroxy-2-methylquinoline] | – | – | – | – | – | 1.56 µM | – | – | – | – | – | – | – | – | – | – | – | – | – | – | AC50 ([1]; antagonist candidates, inactive samples arbitrarily set to AC50=1,000 μM): > 92 µM; AC50 ([6]; median over 18 Tox21 cell viability assays, inactive set to 1,000): 13.6 µM; Active in global cytotoxicity assays (%) ([7]; percentage of 18 Tox21 viability assays with hitc=1): 13.6%; AC50 [12]: 1.5 µM |
